Values quoted from earlier work, collected in patent US20240066021A1, “METHODS FOR OPTIMIZING CFTR-MODULATOR THERAPY” (Children's Hospital Medical Center, priority 2021, published 2024).

Experiments:
CENP-E = CENP-E (Homo sapiens, UniProt Q02224); conditions: Target CENP-E, Gene Symbol CENPE
UFO = target: T1, UFO (Homo sapiens, UniProt P30530); conditions: Target UFO, Gene Symbol AXL
T1 sequence (P30530 26-894): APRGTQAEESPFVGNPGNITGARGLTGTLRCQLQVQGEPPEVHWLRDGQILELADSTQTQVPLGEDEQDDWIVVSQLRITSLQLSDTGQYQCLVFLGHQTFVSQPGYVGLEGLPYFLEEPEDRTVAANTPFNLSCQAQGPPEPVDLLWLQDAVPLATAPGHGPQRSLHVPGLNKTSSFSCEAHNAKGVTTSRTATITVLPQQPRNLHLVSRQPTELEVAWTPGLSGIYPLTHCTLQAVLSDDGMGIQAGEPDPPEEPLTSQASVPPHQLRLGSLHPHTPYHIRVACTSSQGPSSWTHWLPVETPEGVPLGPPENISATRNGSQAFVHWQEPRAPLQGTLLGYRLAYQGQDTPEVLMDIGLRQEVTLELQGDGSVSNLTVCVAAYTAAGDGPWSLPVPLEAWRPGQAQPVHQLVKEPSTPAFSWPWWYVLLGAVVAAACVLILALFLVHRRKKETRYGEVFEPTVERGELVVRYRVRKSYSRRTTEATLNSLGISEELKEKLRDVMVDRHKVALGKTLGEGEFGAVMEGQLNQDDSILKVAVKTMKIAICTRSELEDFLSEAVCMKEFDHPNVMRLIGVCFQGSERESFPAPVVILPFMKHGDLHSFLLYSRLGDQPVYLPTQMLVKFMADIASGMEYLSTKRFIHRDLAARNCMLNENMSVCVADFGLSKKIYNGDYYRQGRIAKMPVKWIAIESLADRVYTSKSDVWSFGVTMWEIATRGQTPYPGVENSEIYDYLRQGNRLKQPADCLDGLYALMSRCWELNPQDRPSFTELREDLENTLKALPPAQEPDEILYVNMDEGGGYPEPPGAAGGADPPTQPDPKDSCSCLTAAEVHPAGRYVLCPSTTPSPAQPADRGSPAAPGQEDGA

CENP-E, sequence (Q02224 whole entry): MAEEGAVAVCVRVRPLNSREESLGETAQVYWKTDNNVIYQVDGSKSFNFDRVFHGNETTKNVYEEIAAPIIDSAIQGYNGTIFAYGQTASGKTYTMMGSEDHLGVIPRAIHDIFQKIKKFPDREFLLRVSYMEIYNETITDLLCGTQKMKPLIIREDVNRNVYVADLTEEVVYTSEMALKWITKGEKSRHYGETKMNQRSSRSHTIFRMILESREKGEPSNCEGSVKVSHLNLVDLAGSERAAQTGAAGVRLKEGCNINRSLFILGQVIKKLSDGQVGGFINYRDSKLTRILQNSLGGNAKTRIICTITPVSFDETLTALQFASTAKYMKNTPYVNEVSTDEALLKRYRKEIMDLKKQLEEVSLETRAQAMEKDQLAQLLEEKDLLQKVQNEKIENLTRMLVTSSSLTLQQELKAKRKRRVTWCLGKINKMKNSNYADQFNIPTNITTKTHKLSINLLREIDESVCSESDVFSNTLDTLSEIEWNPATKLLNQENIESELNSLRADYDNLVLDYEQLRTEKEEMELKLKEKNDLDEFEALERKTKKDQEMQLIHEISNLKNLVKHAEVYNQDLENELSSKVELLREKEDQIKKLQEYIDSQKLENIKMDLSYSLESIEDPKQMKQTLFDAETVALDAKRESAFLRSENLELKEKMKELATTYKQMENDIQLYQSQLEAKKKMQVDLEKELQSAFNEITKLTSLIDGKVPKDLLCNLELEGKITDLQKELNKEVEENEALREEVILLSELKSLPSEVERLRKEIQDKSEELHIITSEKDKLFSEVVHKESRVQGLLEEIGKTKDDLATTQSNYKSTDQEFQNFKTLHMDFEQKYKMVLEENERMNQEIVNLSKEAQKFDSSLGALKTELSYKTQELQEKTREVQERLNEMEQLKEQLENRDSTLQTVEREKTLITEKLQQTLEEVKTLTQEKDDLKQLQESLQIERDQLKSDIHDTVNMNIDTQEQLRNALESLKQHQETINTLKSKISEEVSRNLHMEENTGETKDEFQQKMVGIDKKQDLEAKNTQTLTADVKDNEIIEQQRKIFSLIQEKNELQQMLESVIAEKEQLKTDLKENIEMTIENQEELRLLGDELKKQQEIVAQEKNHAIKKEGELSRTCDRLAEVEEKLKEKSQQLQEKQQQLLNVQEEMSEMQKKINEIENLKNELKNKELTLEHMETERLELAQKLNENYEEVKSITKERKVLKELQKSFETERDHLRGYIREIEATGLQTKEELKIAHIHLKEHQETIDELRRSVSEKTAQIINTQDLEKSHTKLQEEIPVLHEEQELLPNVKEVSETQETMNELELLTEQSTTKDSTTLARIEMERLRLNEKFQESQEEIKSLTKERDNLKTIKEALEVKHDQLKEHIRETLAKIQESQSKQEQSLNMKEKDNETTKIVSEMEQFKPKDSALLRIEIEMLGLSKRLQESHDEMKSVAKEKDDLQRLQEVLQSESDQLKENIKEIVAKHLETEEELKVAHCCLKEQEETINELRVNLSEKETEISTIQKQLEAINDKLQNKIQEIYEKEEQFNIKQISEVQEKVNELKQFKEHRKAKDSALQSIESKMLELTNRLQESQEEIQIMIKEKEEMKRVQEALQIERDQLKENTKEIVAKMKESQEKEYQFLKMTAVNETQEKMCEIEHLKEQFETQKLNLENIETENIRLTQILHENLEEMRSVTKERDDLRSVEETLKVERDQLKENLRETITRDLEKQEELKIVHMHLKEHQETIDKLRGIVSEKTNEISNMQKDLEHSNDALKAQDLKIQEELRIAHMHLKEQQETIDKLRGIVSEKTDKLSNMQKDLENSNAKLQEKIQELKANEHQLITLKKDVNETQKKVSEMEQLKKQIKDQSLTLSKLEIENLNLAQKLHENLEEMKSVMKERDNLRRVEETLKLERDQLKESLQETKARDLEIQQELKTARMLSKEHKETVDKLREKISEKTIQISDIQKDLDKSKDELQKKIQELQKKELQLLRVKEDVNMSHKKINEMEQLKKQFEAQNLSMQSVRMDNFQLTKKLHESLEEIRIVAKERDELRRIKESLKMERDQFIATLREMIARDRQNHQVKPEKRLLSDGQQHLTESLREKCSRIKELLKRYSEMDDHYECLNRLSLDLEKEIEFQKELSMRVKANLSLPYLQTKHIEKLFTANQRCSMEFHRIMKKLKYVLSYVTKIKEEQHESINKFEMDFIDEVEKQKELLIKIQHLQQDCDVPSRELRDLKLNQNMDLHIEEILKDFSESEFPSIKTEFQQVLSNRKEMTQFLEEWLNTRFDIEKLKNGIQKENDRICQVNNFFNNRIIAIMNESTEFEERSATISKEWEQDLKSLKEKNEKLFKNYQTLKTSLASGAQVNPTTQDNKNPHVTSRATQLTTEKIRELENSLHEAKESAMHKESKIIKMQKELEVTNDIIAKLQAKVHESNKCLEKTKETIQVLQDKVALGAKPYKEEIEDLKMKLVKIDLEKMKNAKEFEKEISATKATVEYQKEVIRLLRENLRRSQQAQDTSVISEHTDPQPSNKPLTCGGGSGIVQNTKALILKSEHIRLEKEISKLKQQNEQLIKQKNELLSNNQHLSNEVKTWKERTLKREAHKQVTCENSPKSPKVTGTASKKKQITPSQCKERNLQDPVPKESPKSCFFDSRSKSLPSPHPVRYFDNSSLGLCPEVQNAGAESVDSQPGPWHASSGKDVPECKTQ

SMILES: CC(C)Oc1ccc(C(=O)N[C@H](CNC(=O)CN(C)C)Cc2ccc(-c3cn4cccc([C@H](C)O)c4n3)cc2)cc1Cl [GSK-923295]
- Effect (CENP-E): Inhibition

SMILES: COc1cc2c(Oc3ccc(NC(=O)C4(C(=O)Nc5ccc(F)cc5)CC4)cc3F)ccnc2cc1OCCCN1CCOCC1 [Foretinib]
- Effect (UFO): Inhibition
